Columns and labels:
Format in all cases: in vivo, rat
[1] = tested on: Dahl salt-sensitive (Dahl/SS) male rats; assay: Autopsy: body weight, heart weight and heart weight to body weight ratio in hypertensive Dahl/SS rats; details: for HW (heart weight) / HW/BW: HT Dahl/SS rats on high salt diet, at 6 weeks, mean ± SEM
Procedure: (§1) A total of 29 adult Dahl salt-sensitive (Dahl/SS) male rats with an initial weight of 150 to 200 g were included in the study. Rats were purchased from Charles River Laboratories (USA) and housed in a room with a 12/12-hour light cycle, a temperature of 21° C., and a humidity of 55%. Rats were maintained on a normal salt diet up to seven weeks of age. Twenty-two Dahl/SS were then randomly switched to a high salt diet for 6 weeks to induce hypertension, whilst 7 rats were kept normotensive (NT) on normal salt diet. Drinking water and food was provided ad libitum.
(§2) After 2 weeks of high salt diet, 15 hypertensive (HT) rats were started on treatment with proANP31-67. Rats treated with proANP31-67 received one of two dosages: 50 ng/kg/day (n=8) or 100 ng/kg/day (n=7). A total of 14 rats received only vehicle: control rats on a normal salt diet (n=7); and HT rats on a high salt diet (n=7). Rats were randomly assigned to the 3 groups (i.e. control normal salt; high salt untreated; high salt plus treatment).
(§3) Drug or vehicle was delivered via Alzet osmotic mini-pumps (Model 2004; mean pumping rate […], mean fill volume […]) implanted subcutaneously (as instructed by the manufacturer) for 28 days. Animals were treated with buprenorphine (0.05 mg/kg s.c.) as analgesic 30 minutes before and up to 1 day following implantation of pumps.
Experiments were performed as described above in Example 1, using a group of 8 Dahl/SS rats which, at 7 weeks of age, were switched to a high salt diet as described above. After 2 weeks of high salt diet, this group was started on proANP31-67 treatment. The rats were administered proANP31-67 at a renal sub-therapeutic dosage of 25 ng/kg/day.

[2] = tested on: Dahl salt-sensitive (Dahl/SS) male rats; assay: Histochemistry of left ventricle collagen deposition (Masson's trichrome) and collagen cross-linking (Picrosirius Red); details: HT Dahl/SS rats, 50 or 100 ng/kg/day s.c. (pooled), not significant, FIG. 2
Procedure: as §1
After 2 weeks of high salt diet, 15 hypertensive (HT) rats were started on treatment with proANP31-67. […]
Hearts were excised, rinsed in PBS, quickly blotted on gauze, and then fixed in 10% formalin for a minimum of 24 hr. […] Stained sections were scanned (20× magnification) with AxioScan Z1 (Carl Zeiss), to obtain whole cross-sections for collagen quantification. Total fibrosis area (%) and perivascular fibrosis (ratio of the area of fibrosis surrounding the vessel wall to the lumen area) were quantified using ZEN2 blue edition (Zeiss, Jena, Germany). […] The degree of cross-linked collagen was calculated as the ratio between cross-linked collagen and total collagen. All histological quantifications were independently performed by three trained researchers blinded to rat groups.

[3] = tested on: left ventricular cardiomyocytes; assay: Cardiomyocyte isolation and t-tubule structure (di-8-ANEPPS confocal imaging); details: HT Dahl/SS rats, 50 or 100 ng/kg/day s.c. (pooled)
Procedure: as §1, §2, §3
A subset of rats was used for analyses of t-tubule structure in isolated left ventricular cardiomyocytes. These animals were anaesthetised as described above and euthanised by removal of the heart. […]
Cardiomyocytes were then isolated as previously described (Frisk et al., American Journal of Physiology—Heart and Circulatory 307: H609-620, 2014). […] Fluorescence was excited at 488 nm and emitted light above 500 nm was measured. t-tubule captures were recorded with 1871×1871-pixel XY images, recorded as z-stacks (spatial resolution: 77×77×500 nm). […] Cell area, t-tubule density and distance to nearest t-tubule or sarcolemmal membrane were analysed as previously described (Frisk et al., Cardiovascular Research 112: 445-451, 2016).

[4] = tested on: Dahl salt-sensitive (Dahl/SS) male rats; assay: Renal function and structure in hypertensive Dahl/SS rats (data not shown); details: HT Dahl/SS rats
[5] = 50 or 100 ng/kg/day s.c. (pooled) for 28 days

## proANP31-67: Human proANP31-67, linear peptide fragment of proANP consisting of SEQ ID NO: 1; also known as vessel dilator, VSDL (EVVPPQVLSEPNEEAGAALSPLPEVPPWTGEVSPAQR; listed as Homo sapiens)
[1]; 25 ng/kg/day s.c.
  HW (heart weight): 1304 ± 41.4 mg
  HW/BW: 3.68 ± 0.07
[1]; [5]
  HW (heart weight): 1365 ± 30.1 mg
  HW/BW: 3.97 ± 0.1 mg/g
[1]; HT Dahl/SS rats, 25 ng/kg/day s.c., FIG. 5B
  increase in HW/BW relative to NT rats: no increase
[1]; HT Dahl/SS rats, 50 or 100 ng/kg/day s.c. (pooled), FIG. 1B
  percentage increase in heart weight/body weight compared to NT: less than 5%
[2]
  increase of interstitial LV fibrosis compared to NT rats: 14%
  increase of perivascular LV fibrosis compared to NT rats: 35%
[3]; FIG. 3B
  cardiomyocyte size: preserved
[3]; FIG. 3C
  t-tubule density: normal
[3]; FIG. 3D
  increase of maximal intracellular distance from each point in the cytosol to the nearest t-tubule or surface membrane: prevented
[4]; 25 ng/kg/day s.c.
  protective effects on renal function: not to display the protective effects on renal function
[4]; 50 or 100 ng/kg/day s.c., data not shown
  effects on renal function and structure: protective effects on renal function and structure

— US20230173029A1, “TREATMENT OF CARDIAC REMODELLING” (UNIVERSITETET I OSLO, priority 2020, published 2023)
